One may read the EC50 as the concentration that produces a half-maximal response. A high value points to a less potent agent.

One data set deals with H1L1.1 cells. Briefly: Dose response of luciferase induction, 24 h (FIGS. 3-6, Table 3). The data set is classed as cell-based, mouse. Particulars: for Emax / EC50: Mus musculus; for Emax / Induction of luciferase activity: mono-ortho-PCBs, FIG. 4; for Emax: vs 1 nM TCDD, read-out: Luciferase induction as % of that observed with TCDD; for Maximal luciferase expression / Relative inducing potency versus TCDD: fused-ring PAHs, FIG. 6. As to the method: The graph of FIG. 3 illustrates the dose dependence of luciferase induction in the mouse H1L1.1 cells measured following […] of the cells to increasing concentrations of TCDD or other toxic compounds (which others are discussed in more detail below).
More particularly, the stable cell clones for the mouse H1L1.1 cells (about 90% confluent) were plated into six-well microplates (purchased from Corning) and incubated for 24 hours with the indicated concentration of the particular toxin solubilized in DMSO. Then, the cells were lysed with 100 μl of lysis buffer and luciferase activity was determined as described above. Values represent the mean ± the standard evaluation of at least triplicate determinations.
As set out in Table 3, the responsiveness and sensitivity of the mouse H1L1.1 cells was compared to the responsiveness and sensitivity of certain other published PCDH cell bioassay systems. The other systems were a recombinant HepG2 (101L) cell line that induces firefly luciferase (see, Postlind et al., supra), a recombinant Hepa1 (T13) cell line that induces PAP activity (see El-Fouly et al., supra), and a rat H4IIE cell line that induces EROD activity (see, Kennedy et al., supra). The ED50 values were calculated by probit analysis of the dose-response data.
As set out in the graphs of FIGS. 3-6, since one use of the stably transfected mouse H1L1.1 cell lines is for detection and relative quantitative analysis of TCDD and various dioxin-like compounds (i.e., AhR ligands), the ability of various compounds besides TCDD to induce luciferase activity in the mouse H1L1.1 cells was examined. The experiments performed to determine the dose-response curves for the toxins other than TCDD set out in the graphs of FIGS. 3-6 were performed in essentially the same manner as the experiments described above to determine the dose response curve of TCDD set out in the graph of FIG. 3.
Specifically, with respect to the data illustrated in the graph of FIG. 3, cells were incubated with increasing concentrations of test chemical and luciferase activity determined after 24 hours.
It should be noted that the low numerical values of luciferase activity from induction by various PCBs reported in FIGS. 4 and 5, compared to the values reported in the other figures, are not due to actual low levels of luciferase induction, but to the fact that the detection of luminescence in these experiments was performed using a different instrument from that used in the other experiments.
However, the relative magnitude of luciferase induction by the mono-ortho-PCBs (FIG. 4) and the AROCLORS (FIG. 5) was established by directly comparing the resulting activity to that produced by a maximally inducing dose of TCDD (1 nM solubilized in DMSO) measured in the same instrument.

The next data set relates to mouse AhR. Briefly: Competitive inhibition of TCDD binding to AhR.
The test system of a further data set is guinea pig AhR. Briefly: Competitive inhibition of TCDD binding to AhR.
The next data set has as its system rat AhR. Briefly: Competitive inhibition of TCDD binding to AhR.
A further data set concerns human HG2L1.1c3 cells. Briefly: Antagonism of TCDD luciferase induction by 2,2',5,5'-TCB (FIG. 7). The data set is classed as cell-based. The note with it: 24 h. As to the method:
(§1) The bar graph of FIG. 7 illustrates that 2,2',5,5'-TCB antagonizes induction of luciferase activity by TCDD in a species-specific manner, and thus, 2,2',5,5'-TCB is not a TCDD-like compound as defined herein. In particular, six-well plates containing the indicated cell lines were incubated with DMSO (control), with TCDD (5 nM), with 2,2',5,5'-TCB (25 μM), or with both TCDD (5 nM) and 2,2',5,5'-TCB (25 μM) for 24 hours. Luciferase activity in cell lysates was determined as described above. Values represent the mean ± the standard evaluation of at least triplicate determinations.

Another data set relates to rat H4L1.1c4 cells. The data set is described as above. The data set is classed as cell-based. The note with it: 24 h. The method, then: as §1
A further data set has as its system mouse H1L1.1 cells. The data set is described as above. The format is cell-based. The method, then: as §1
The subject of data set [1] is guinea pig G16L1.1c8 cells. The data set is described as above. The data set is classed as cell-based. The note with it: 24 h. As to the method:
as §1

On to `Clc1ccc(-c2cc(Cl)c(Cl)c(Cl)c2Cl)cc1Cl` [2,3,3',4,4',5-HCB, 2,3,3',4,4',5-hexachlorobiphenyl], for which, in the data set on H1L1.1 cells (24 h), the Emax lay within 20 to 30% and the “Induction of luciferase activity” value was found to be 10 fold.

With `Clc1cc2oc3cc(Cl)c(Cl)cc3c2cc1Cl` [2,3,7,8-TCDF, 2,3,7,8-tetrachlorodibenzofuran], in the data set with H1L1.1 cells (24 h, FIG. 3), the “Level of luciferase induction relative to TCDD” value is “comparable levels” and the EC50 is roughly 0.05 nM.

As to `Clc1ccc(-c2cc(Cl)c(Cl)c(Cl)c2)cc1Cl` [3,3',4,4',5-PCB, 3,3',4,4',5-pentachlorobiphenyl], in the data set on H1L1.1 cells (24 h, FIG. 3), the “Level of luciferase induction relative to TCDD” value is listed as “comparable maximal levels” and the EC50 was determined as 2 nM.

As for `Clc1ccc(-c2ccc(Cl)c(Cl)c2)cc1Cl` [3,3',4,4'-TCB, 3,3',4,4'-tetrachlorobiphenyl], in the data set with H1L1.1 cells (24 h, FIG. 3), the “Level of luciferase induction relative to TCDD” value is recorded as “comparable maximal levels” and the midpoint of the response, the EC50, lay at 100 nM.

For the compound `Clc1cc2c(cc1Cl)Oc1c(Cl)c(Cl)cc(Cl)c1O2` [1,2,4,7,8-PCDD, 1,2,4,7,8-pentachlorodibenzo-p-dioxin], the Luciferase activation entry in the data set on H1L1.1 cells (up to 10 μM, 24 h, FIG. 3) is “no luciferase activation”.

For `c1ccc2cc3c(ccc4ccccc43)cc2c1` [BA, benz[a]anthracene], in the data set with H1L1.1 cells, the Maximal luciferase expression result is given as “maximal luciferase expression was not reached” and the “Relative inducing potency versus TCDD” value was “substantially less potent than TCDD”.

For `Clc1ccc(-c2cc(Cl)c(Cl)c(Cl)c2Cl)cc1` [2,3,4,4',5-PCB, 2,3,4,4',5-pentachlorobiphenyl], in the data set on H1L1.1 cells (24 h), the Emax was 20 to 30% and the “Induction of luciferase activity” value is listed as 10 fold.

Consider `Clc1cc2oc3c(Cl)c(Cl)c(Cl)cc3c2cc1Cl` [2,3,4,7,8-PCDF, 2,3,4,7,8-pentachlorodibenzofuran], for which, in the data set on H1L1.1 cells (24 h, FIG. 3), the “Level of luciferase induction relative to TCDD” value is “comparable levels” and the 50% effective concentration (EC50) is roughly 2 nM.

On to `Cc1ccc2cc3c(ccc4ccccc43)c3c2c1CC3` [3-MC, 3-methylcholanthrene], for which, in the data set with H1L1.1 cells, the Maximal luciferase expression result is given as “maximal luciferase expression was not reached” and the “Relative inducing potency versus TCDD” value is recorded as “substantially less potent than TCDD”.

Consider `Clc1ccc(Cl)c(-c2cc(Cl)ccc2Cl)c1` [2,2',5,5'-TCB, 2,2',5,5'-tetrachlorobiphenyl], for which the “Competitive inhibition of TCDD binding” value in the data set with mouse AhR was “competitively to inhibit TCDD binding”; in the data set with guinea pig AhR, “but not to the guinea pig and human AhRs”; in the data set on rat AhR, “competitively to inhibit TCDD binding”. The “Effect of 2,2',5,5'-TCB alone on luciferase activity” value was “no significant effect” in the data set on human HG2L1.1c3 cells (25 μM); “no significant effect” with rat H4L1.1c4 cells (25 μM); “no significant effect” with mouse H1L1.1 cells (25 μM, 24 h); “no significant effect” in data set [1] (25 μM). Also, the “Effect of 2,2',5,5'-TCB on TCDD luciferase induction” value (in the data set on human HG2L1.1c3 cells (TCB 25 μM + TCDD 5 nM); in data set [1] (TCB 25 μM + TCDD 5 nM)) was “not affected” each time. The “Reduction of TCDD luciferase induction” value in the data set with rat H4L1.1c4 cells (TCB 25 μM + TCDD 5 nM) is 47%; with mouse H1L1.1 cells (TCB 25 μM + TCDD 5 nM, 24 h) it was 86%. The “Luminescence response of H1L1.1 cells” value in the data set with mouse H1L1.1 cells (2,2',5,5'-TCB alone, in words) was “will not cause the novel mouse H1L1.1 cell line to respond with luminescence”. The “Antagonism when added with TCDD” value in the data set with mouse H1L1.1 cells (in words) was “acts as an antagonist”.

Take `O=c1cc(-c2ccccc2)oc2ccc3ccccc3c12` [BNF, β-naphthoflavone]: in the data set on H1L1.1 cells, the Maximal luciferase expression result was “maximal luciferase expression was not reached” and the “Relative inducing potency versus TCDD” value is reported as “substantially less potent than TCDD”.

These data come from patent US5854010A, “Bioassay for detecting 2,3,7,8-tetrachlorodibenzo-para-dioxin and TCDD-like compounds and novel recombinant cell line useful therefor” (priority 1997, dated 1998).
